The test system of data set [1] is LDL. Description: In vitro LDL oxidation (Cu++), conjugated diene formation. It counts as biochemical, rabbit. The conditions noted are these: for LDL Oxd. Inhib. mean lag ratio: 10 μM, rabbit plasma LDL, Cu++, treated/control lag time.
In data set [2] the test system is human hepatoma HepG2 cells. In words: HepG2 cell culture model: cholesterol synthesis by 14C-acetate incorporation. Format: cell-based. The conditions noted are these: 4 h incubation, read-out: Cholesterol Biosynthesis. As to the method:
(§1) The human hepatoma HepG2 cell culture model was employed to compare the intrinsic activities of the representative compounds of the present invention relative to the tocotrienols. HepG2 cells were incubated with the indicated compounds for 4 hours at 10 μM. Cholesterol synthesis was assayed by ^14 C-acetate incorporation over the final hour of incubation, and HMG-CoA reductase suppression (specific activity) was assayed in the microsomal fraction isolated from parallel cultures at the end of the 4 hour incubation.

Data set [3] relates to HMG-CoA reductase. In words: HepG2 cell culture model: HMG-CoA reductase suppression (specific activity, microsomal fraction). Format: cell-based, human. The conditions noted are these: 10 μM, 4 h incubation, HepG2 cells. As to the method:
as §1

Data set [4] in a line: In vivo hypocholesterolemic activity in normocholesterolemic chickens: total serum cholesterol and HDL/LDL cholesterol pools. The conditions noted are these: male chickens, orally dosed for 4 weeks at 4 mg/kg/day. Further details: species or system chicken. As to the method:
(§2) Hypocholesterolemic activity was evaluated for representative compounds of the present invention using γ-tocotrienol as a control in normocholesterolemic chickens. Newborn male chicks (6-10 for each group) were raised on a standard corn-soybean-based control diet for two weeks and then were switched to either control or experimental diets for four weeks. Drug treatment consisted of the addition of test compound to the corn-soybean-based. At the end of the feeding period, all the birds were fasted (about 36 hours) and refed (about 48 hours) to induce cholesterolgenic enzymes prior to sacrifice. The specific activity of HMG-CoA reductase, total serum cholesterol levels, and HDL/LDL cholesterol pools were examined (Table II).
(§3) Effects of Compounds of the present invention on Lipid
(§4) Parameters in Male Chickens
(§5) Orally dosed for 4-weeks at 4 mg/kg/day

The subject of data set [5] is HMG-CoA reductase. In words: In vivo evaluation in normocholesterolemic chickens: specific activity of HMG-CoA reductase. On the set-up: species or system chicken. The conditions noted are these: male chickens, orally dosed for 4 weeks at 4 mg/kg/day. As to the method: as §2, §3, §4, §5
The nature of data set [6]: Redox potential by cyclic voltammetry. It counts as physicochemical. The conditions noted are these: for Oxd. Potential: cyclic voltammetry. From the text: One method for the measurement of general antioxidant capacity is stopped-flow kinetic analysis. (Mukai, et al., Bull. Chem. Soc. Jpn., 59: 3113-3116 (1986); Mukai, et al., J. Org. Chem., 54: 557-560 (1989); Mukai, et al. J. Org. Chem., 53: 430-432 (1988)). This is a sophisticated setup wherein, one measures radical transfer from a stable radical, (for example 2,6-di-tert-butyl-4-(4-methoxyphenyl)phenoxy), to a test compound spectrophotometrically as a function of time. […] (Mukai, et al., Bull. Chem. Soc. Jpn., 59: 3113-3116 (1986); Mukai, et al., J. Org. Chem., 54: 557-560 (1989); Mukai, et al. J. Org. Chem., 53: 430-432 (1988)). Voltammetry has been used by Moldeus et al. to study the antioxidant capacity of structurally related dibenzo[1,4]dichalcogenines as inhibitors of lipid peroxidation. (Cotgreave, et al., Biochem. Pharm., 42: 1481-85 (1991)). In their case, a strong correlation between voltammetric potential and the ability to inhibit lipid peroxidation was observed.
(Mukai, et al., J. Org. Chem., 53: 430-432 (1988); Mukai, et al., J. Org. Chem., 54: 552-556 (1989); Mukai, et al., J. Org. Chem., 56: 4188-4192 (1991)).

Data set [7] concerns hamster LDL. In words: Ex vivo LDL lipid peroxidation assay in hamsters (Cu++ oxidation; conjugated dienes or lipid peroxides). The following applies: 17 days; for Conj. Dienes lag ratio: treated/control.
Description: As a secondary screen, test compounds are evaluated ex vivo for their oral effectiveness to inhibit LDL oxidation. […] Again, the conjugated diene assay is used to assess lipid peroxidation.
Hamsters (n=6 per group) were placed on an atherogenic diet (0.4% cholesterol+10% vitamin E stripped corn oil), and were orally dosed for 17 days with the indicated compounds at 75 mpk/day. The resistance of hamster LDL to copper-dependent oxidation in vitro was determined by conjugated dienes or lipid peroxides.
Data set [8] relates to cholesterol fed rabbits. The following applies: cited from earlier work.
For data set [9] the following is noted: in vivo; cited from earlier work.

For the molecule `Cc1cc(C(C)(C)C)c(O)c(C(C)(C)C)c1` [Butylatedhydroxytoluene], in [1], the “LDL Oxd. Inhib. mean lag ratio” value came out at 1.38.

Regarding `CC(C)=CCC/C(C)=C/CC/C(C)=C/CCCOc1ccc2c(c1)C(C)=CC(C)(C)N2` [Compound 4, 1,2-Dihydro-2,2,4-Trimethyl-6-[(5,9,13-Trimethyl-4(E),8(E),1 2-tetradecatrienyl)oxy]Quinoline], in [2], the activity at 10 µM is 48%. Also, the “HMGR Suppression” value in [3] is listed as 40% of Control. Moreover, in [4], the HDL-C is 89.0 % of Control, the LDL-C is reported as 45.3 % of Control and the Tot.-C is on record as 65.9 % of Control. In data set [5], the HMGR is listed as 83.8 % of Control. Moreover, the “Oxd. Potential” value in [6] is reported as 0.47 Volts. Also, the “oxidation potential compared with standard reference agents” value in data set [6] (over standard reference agents, in words) is on record as “lower oxidation potential”. Further, in data set [1], the “LDL Oxd. Inhib. mean lag ratio” value was 1.80. In data set [1] (in vitro and ex vivo (Tables III, IV), in words), the “LDL protective capacity compared with standard reference agents” value was “superior LDL protective capacity”. Also, in [7] (50 mg/kg/d oral), the “lipid peroxide formation in LDL, % of Control, 1.5 h” value is given as 3 % of Control; the “lipid peroxide formation in LDL, % of Control, 3.0 h” value was 31 % of Control; the “Conj. Dienes lag ratio” value is on record as 1.57.

With `CC(C)=CCC/C(C)=C/CC/C(C)=C/CCCSc1ccc2c(c1)C(C)=CC(C)(C)N2` [Compound 8, 1,2-Dihydro-2,2,4-Trimethyl-6-[(5,9,13-Trimethyl-4(E),8(E),1 2-tetradecatrienyl)thio]Quinoline], in data set [2], the activity at 10 µM stood at 3%. In addition, in [4], the HDL-C is 98.2 % of Control, the LDL-C is recorded as 99.1 % of Control and the Tot.-C was 100.9 % of Control. The “Oxd. Potential” value in data set [6] came to 1.20 Volts. Moreover, the “LDL Oxd. Inhib. mean lag ratio” value in [1] is given as 1.64.

As for `CC(C)=CCC/C(C)=C/CC/C(C)=C/CCCCc1ccc2c(c1)C(C)=CC(C)(C)N2` [Compound 11, 1,2-Dihydro-2,2,4-Trimethyl-6-[6,10,14-Trimethyl-5(E),9(E), 13-Pentadecatrienyl]Quinoline], the activity at 10 µM in [2] came out at 89%.

`CC1=CC(C)(C)Nc2ccc(OCCC/C=C(\C)CCc3cccc(C(F)(F)F)c3)cc21` [Compound 18]: in data set [2], the activity at 10 µM was found to be 42%. Also, in data set [4], the HDL-C was 93.8 % of Control, the LDL-C is recorded as 26.0 % of Control and the Tot.-C was 61.2 % of Control. Besides, in data set [5], the HMGR was 66.4 % of Control.

On to `CCOc1ccc2c(c1)C(C)=CC(C)(C)N2` [ETHOXYQUIN], for which the “LDL Oxd. Inhib. mean lag ratio” value in data set [1] worked out at 1.21. For the same molecule, in [7] (75 mg/kg/d oral), the “lipid peroxide formation in LDL, % of Control, 1.5 h” value is listed as 0 % of Control; the “lipid peroxide formation in LDL, % of Control, 3.0 h” value was 13 % of Control; the “Conj. Dienes lag ratio” value amounted to 1.81.

In the case of `CC1(C)C=C(CS(=O)(=O)O)c2cc(Cc3ccc4c(c3)C(CS(=O)(=O)O)=CC(C)(C)N4)ccc2N1` [MTDQ-DA], the “effects on various lipid parameters” value in [8] (cholesterol fed rabbits) is “fairly modest effects on various lipid parameters”. For the same molecule, in data set [8] (relative to the cholesterol fed rabbit controls), the plaque progression entry was “completely inhibited plaque progression”.

Consider `O=C1O[C@H]([C@@H](O)CO)C(O)=C1O` [Na Ascorbate], for which, in data set [7] (50 mg/kg/d oral), the “lipid peroxide formation in LDL, % of Control, 1.5 h” value is 8 % of Control; the “lipid peroxide formation in LDL, % of Control, 3.0 h” value is 91 % of Control; the “Conj. Dienes lag ratio” value came out at 1.33.

Take `CC(C)(Sc1cc(C(C)(C)C)c(O)c(C(C)(C)C)c1)Sc1cc(C(C)(C)C)c(O)c(C(C)(C)C)c1` [PROBUCOL, 4,4'-[(1-methylethylidene)bis(thio)]-bis[2,6-bis(1,1-dimethylethyl)]]: in data set [7] (50 mg/kg/d oral), the “lipid peroxide formation in LDL, % of Control, 1.5 h” value was 48 % of Control and the “lipid peroxide formation in LDL, % of Control, 3.0 h” value is listed as 93 % of Control. Moreover, the bioavailability result in [9] is on record as “suffers from bioavailability problems”.

Consider `Cc1c(C)c2c(c(C)c1O)CCC(C)(CCCC(C)CCCC(C)CCCC(C)C)O2` (stereo not drawn) [α-Tocopherol], for which the “LDL Oxd. Inhib. mean lag ratio” value in [1] is 1.01. In addition, in data set [7] (50 mg/kg/d oral), the “lipid peroxide formation in LDL, % of Control, 1.5 h” value is given as 15 % of Control; the “lipid peroxide formation in LDL, % of Control, 3.0 h” value is recorded as 36 % of Control; the “Conj. Dienes lag ratio” value is recorded as greater than 3.

As for `Cc1c(O)cc2c(c1C)OC(C)(CCCC(C)CCCC(C)CCCC(C)C)CC2` (centres unmarked) [γ-Tocopherol], the “LDL Oxd. Inhib. mean lag ratio” value in [1] came to 1.17.

On to `CC(C)=CCC/C(C)=C/CC/C(C)=C/CCC1(C)CCc2cc(O)c(C)c(C)c2O1` (centres unmarked) [γ-Tocotrienol], for which the activity at 10 µM in data set [2] was 29%. Further, in [3], the “HMGR Suppression” value was 65% of Control. Besides, in [4], the Tot.-C is listed as 76.3 % of Control. In addition, the “LDL Oxd. Inhib. mean lag ratio” value in data set [1] turned out to be 1.27. In data set [7] (50 mg/kg/d oral), the “lipid peroxide formation in LDL, % of Control, 1.5 h” value is given as 7 % of Control; the “lipid peroxide formation in LDL, % of Control, 3.0 h” value is 67 % of Control; the “Conj. Dienes lag ratio” value is given as 1.48.

Values taken from patent publication US5411969A, “Antihyperlipidemic/antioxidant dihydroquinolines” (Bristol-Myers Squibb Company, priority 1993, dated 1995).
